Data from patent US9157062B2, “Compositions and methods for promoting the generation of PDX1+ pancreatic cells” (President and Fellows of Harvard College, priority 2008, dated 2015).

Legend:
[1] = test system: HUES9-derived population (Pdx1+ cells); experiment: High throughput screen for compounds increasing Pdx1+ cells; assay type: cell-based, human
Experimental: (§1) To generate a starting population, HUES cells were cultured on MEF feeder cells until 80-90% confluent, then treated with 25 ng/ml Wnt3a (R&D systems)+100 ng/ml Activin A (R&D systems) in advanced RPMI (A-RPMI, Invitrogen) supplemented with 1×L-Glu and 1×PS for 1 day, and then 100 ng/ml Activin A in A-RPMI supplemented with 1×L-Glu, 1×PS and 0.2% FBS (Invitrogen). Two days later, the media was changed to 50 ng/ml FGF10 (R&D systems)+0.25 μM KAAD-CYC (Calbiochem) in A-RPMI supplemented with 1×L-Glu, 1×PS and 2% FBS and maintained for additional 2 days. Cells were then transferred to 50 ng/ml FGF10+0.25 μM KAAD-CYC+2 μM RA (Sigma) in DMEM supplemented with 1×L-Glu, 1×PS, 1×B27 (Invitrogen) and cultured for an additional 4 days. ILV was obtained from Axxora, KAAD-CYC, TPB, PMA, BISI, Gö 6983, U0126 and PD98059 were obtained from Calbiochem and RA were obtained from Sigma.
For a high throughput screen, the starting material was hESCs (HUES9 cells) that were induced to pancreatic lineage using a slightly modified version of previously published protocols (D'Amour et al., 2006; Jiang et al., 2007), as described in Example 1. After 9 days of stepwise differentiation, a heterogeneous population of cells was generated containing cells that stained strongly, weakly or not at all with a Pdx1 antibody. Any cell that stained with the Pdx1 staining antibody was counted as Pdx1^+ cells regardless of staining intensity. Together, the Pdx1^+ cells comprises 5.1±1.8% of the total cell number.
To carry out the screen, the cells were trypsinized and plated on 804G-coated 384-well plates at 6000 cells/well using chemically defined media (DMEM supplemented with 2 mM L-Glu, 1×PS, 1×B27). After overnight incubation, compounds were screened by adding them to provide a final concentration of 10 μM, 1 μM and 0.1 μM. Four days later, the cells were stained with Pdx1 antibody and the plates were analyzed with Opera high content screening system (PerkinElmer).
The wells in which the percentage of Pdx1^+ cells is higher than present at day 1 and higher than day 5 treated with DMSO were selected as primary hits. Compounds that increase both the number and percentage of Pdx1^+ cells were picked as primary hits. Eleven compounds produced hits. (FIG. 7, Table I in FIG. 9 and formulas in FIG. 10). These eleven compounds were (−)-Indolactam V (FIG. 1c and Compound I in Table 1) boldine (Compound II), rotenone (Compound III), ethopropazine hydrochloride (Compound IV), cedrelone (Compound V), prieurianin (Compound VI), strophanthidin (Compound VII), trimeprazine tartrate (Compound VIII), terconazole (Compound IX), dimethisoquin hydrochloride (Compound X), harmine hydrochloride (Compound XI).
(§2) Cells were fixed with 10% formalin solution (Sigma) for 20 min at room temperature. Immunostaining was carried out with standard protocols. The following primary antibodies were used: goat anti-Pdx1 (1:500; R&D system); rabbit anti-FOXA2 (1:500; Upstate); rabbit anti-HNF6 (1:200; Santa Cruz Biotech); guinea pig anti-insulin (1:1000; Dako); rabbit anti-c-peptide (1:500; Linco); rabbit anti-amylase (1:200, Sigma); goat anti-HNF1β (1:100, Santa Cruz Biotech); and biotinylated DBA (1:400; Vector Lab). Alexa-488-, Alexa-555, and Alexa-647-conjugated donkey antibodies against mouse, rabbit, guinea pig and goat, and Pacific Blue conjugate-streptavidin (Invitrogen) were used at 1:300 dilution.

[2] = test system: hESC-derived population (Pdx1+ cells); experiment: ILV titration and test on other hESC lines, Pdx1+ cells; assay type: cell-based, human
Experimental: as §1, §2
Additional experiments were carried out to optimize treatment to obtain more Pdx1^+ cells. […] Secondly, since hESC lines vary in their differentiation potentials (Osafune et al., 2008), ILV was tested on other hESC lines and shown to be effective on HUES 2, 4 and 8. After 4 days treatment with ILV, 26.9±2.8% cells of HUES8-derived population are positively stained by Pdx1 antibody (FIG. 2b), making it the most responsive of the lines tested.

[3] = test system: HUES8-derived treated cells grafted under the kidney capsule; experiment: Kidney capsule implantation of treated cells in CD1-nude mice; assay type: in vivo, mouse
Experimental: After 4 days treatment with 300 nM ILV or 300 nM ILV+ 50 ng/ml FGF10, the cells were washed with DPBS for 3 times and treated with 1 mg/ml dispase for 5 min at 37° C. Then, the cells were lifted with the help of cell scraper, collected by centrifugation and resuspended in 50 μl DMEM supplemented 1×B27. About 40 μl (˜2×10^6 cells) of cell clumps were implanted into the left kidney of xylazine anesthetized CD1-nude mice. Two mice were prepared for each sample. Twelve weeks later, the left kidneys were dissected and fixed in 4% paraformaldehyde for 4 hours at 4° C. and processed by standard techniques to generate 15 micrometer cryosections for antibody staining. The antibodies were used as the same condition as immunocytochemistry. Fluorescent images were acquired on an inverted Zeiss LSM 510 confocal microscope.
To further assess the developmental competence of chemically-treated cells, the cells were transplanted under the kidney capsule of nude mice, an assay used by others to observe pancreatic differentiation in vivo (Korsgren et al., 1991; Movassat et al., 2002). […] Additionally, all insulin^+ cells express c-peptide. In contrast, no insulin^+ cells were detected in the mice injected with DMSO-treated population. […]

(−)-Indolactam V [ILV]
primary hits (increase both the number and percentage of Pdx1+ cells) ([1]; HUES9-derived cells, 10 μM, 1 μM and 0.1 μM, four days): hits | effective concentration ([1]; HUES9-derived cells, primary screen): ~1 µM | percentage of Pdx1+ cells ([1]; HUES9-derived population, 1 μM ILV for 4 days (day 5)): 10.9±0.9% | effect on other hESC lines ([2]; HUES 2, 4 and 8): effective | toxicity ([2]; at 300 nM): no detectable toxicity | concentration of highest efficiency ([2]; titration of ILV from 20 nM to 5 μM): 300 nM | EC50 ([2]; titration of ILV from 20 nM to 5 μM, read-out: EC50 (dose-dependent increase of Pdx1+ cells)): 142 nM | teratoma ([3]; after twelve weeks): no evidence for teratoma was detected | endocrine and exocrine markers in grafts ([3]; cells treated 4 days, implanted in left kidney of CD1-nude mice, twelve weeks): contained cell clusters that expressed endocrine markers, including insulin and c-peptide, and an exocrine marker, amylase
